Experimental data published in US20230390224A1, “UNITARY ORAL DOSAGE FORM IN BASE OF SPHERICAL AND/OR SPHEROIDAL SHAPED PARTICLES” (ATOMIC PHARMACEUTICS INC., priority 2022, published 2023).
Where a name gives a salt, the structure may show the parent alone.

Key:
[1] = cited from earlier work
[2] = cited from earlier work; remark: listed apart in the source
[3] = Release of API from gel particles into liquid medium B (spectrophotometry; Weibull Fmax, Higuchi release rate); assay type: physicochemical; conditions: liquid medium B and liquid medium C
Procedure: To the measurements of APIs release, the APIs concentrations were determined spectrophotometrically, by sampling in a Thermo Spectronic Genesys 10 UV equipment. Each of the measurements were performed in duplicate or more trials. The wavelengths occupied will depend on each API tested (for example, 243 nm for acetaminophen, 230 nm for naproxen).
To evaluate each of the experiments carried out and adjust the concentration points during the release experiments, various methods were used: zero order models, first order, Higuchi, Hixson-Crowell, square root of the mass, root 3/2 of the mass, Weibull and Korsmeyer-Peppas. The model that best fits the concentration points during the release experiments was a Weibull model (Vasiliki Papadopoulou, Kosmas Kosmidis, Marilena Vlachou, Panos Macheras, “On the use of the Weibull function for the discernment of drug release mechanisms,” International Journal of Pharmaceutics 309 (2006) 44-50).
An example of the surprising effects of modification of these formulation design factors is shown below for the same API (acetaminophen or paracetamol), as an example of the different effects that can be achieved using the same amount of API in all formulations (120 mg of total acetaminophen in each example). […]

release of API into the aqueous medium [3]	SMILES	solubility in oily media / oil phase [1]	solubility in water [1]	log P [2]
	CC(=O)Nc1ccc(O)cc1 [Acetaminophen, acetaminophen]	poorly soluble	poorly soluble	4.6
	C=C(C)[C@@H]1CCC(C)=C[C@H]1c1c(O)cc(CCCCC)cc1O [CBD, cannabinoidiol]	highly soluble	very slightly soluble	7.75
	CN(C)CCC(c1ccc(Cl)cc1)c1ccccn1 (stereo not shown) [Chlorphenamine maleate, chlorphenamine maleate]			3.7
no release	Cc1cccc(Nc2ccccc2C(=O)O)c1C [Mefenamic acid, mefenamic acid]	not soluble	very poorly soluble	4.2
	CC(=O)Oc1ccccc1C(=O)O [Acetyl salicylic acid, acetyl salicylic acid]	slightly soluble	soluble	
